Experimental data as given in EP4813993A1, “COMPOUND, PREPARATION METHOD THEREFOR, AND USE THEREOF” (Sichuan Kelun Pharmaceutical Research Institute Co., Ltd., priority 2023, dated 2025).

Assays:
incision pain model = assay: Incision pain model in ICR mice, Von Frey test; assay type: in vivo; settings: 50 mg/kg single dose, Mean + SEM, n = 10
[1] = tested on: CFA-induced rat inflammatory pain model; assay: CFA-induced rat inflammatory pain model, Von Frey test; assay type: in vivo, SD rats
Experimental: Experimental Example 9: Pharmacodynamic effect study of compounds in CFA-induced rat inflammatory pain model Experimental animals: SD rats, male, 180-220 g.
Compound preparation: 5% (final preparation volume) of DMSO was added to dissolve the test compound, and then 10% (final preparation volume) of Cremophor EL and 85% Saline were sequentially added; an appropriate amount of Celecoxib was weighed, 5% (final preparation volume) of DMSO was added to dissolve the test compound, and then 5% (final preparation volume) of HS-15 and 90% Saline were sequentially added.
SD rats were anesthetized with isoflurane. The right hind paw was disinfected, a needle was inserted subcutaneously at the posterior plantar aspect, and 50 µL of complete Freund's adjuvant (CFA, 1 mg/mL) was administered via subcutaneous injection at the midplantar region, with the needle withdrawn slowly while rotating to prevent leakage. After modeling, local redness and swelling of the soles of the feet, difficulty in walking, and lifting of the affected feet were observed.
2. Administration and test
The Von Frey test was performed once before the surgery. On the second day after animal modeling, animals meeting the baseline requirements were selected for enrollment. The animals were randomly divided into 6 groups based on the 50% PWT values, with 10 animals per group. Administration was performed under a double-blind test protocol. The 50% PWT of the animals was measured separately before administration (baseline) and at 0.5 h, 2 h, and 8 h after administration. The model control group was given normal saline, while the compound groups were given the compounds according to the administration doses in the table below.

[2] = Pharmacokinetic study in ICR mice; assay type: in vivo; settings: male, mouse, plasma
formalin pain model = assay: Rat formalin pain model; assay type: in vivo, SD rats; settings: for Number of pain responses 0 min / Number of pain responses 10 min / Number of pain responses 15 min / Number of pain responses 30 min / Number of pain responses 40 min / Number of pain responses 50 min / Number of pain responses 60 min: SD rats, Mean + SD, n = 10
Method in brief: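 Male SD rats (180-200 g, n=10/group) dosed 0, 60 or 120 min before 50 µL 5% formalin into right plantar region. Pain responses counted for 1 min every 5 min over 60 min; inhibition rate relative to vehicle control group.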

[3] = Tissue distribution study (dorsal root ganglia) in ICR mice; assay type: in vivo; settings: male, mouse, oral administration 20 mg/kg
Experimental: Experimental Example 4: Tissue distribution study of compounds in ICR mice
Experimental animals: ICR mice, male, 6-8 weeks old.
Compound preparation: 5% (final preparation volume) of DMSO was added to dissolve the test compound, and then 10% (final preparation volume) of Cremophor EL and 85% Saline were sequentially added.
Experimental design: The test compounds were administered to ICR mice as a single dose via oral administration (20 mg/kg; n = 3, 3 time points). Blood samples were collected at 0.25 h, 2 h, and 12 h after oral administration, followed by sacrifice of the animals. Dorsal root ganglia (DRG) were collected, rinsed with ice-cold normal saline to remove residual blood, blotted dry with absorbent paper, and stored at -70 °C for analysis.
Sample test: The concentrations of the compound drugs in dorsal root ganglia were determined by the LC-MS/MS method.

[4] = 50 mg/kg p.o. 120 min before 5% formalin
[5] = 125 mg/kg p.o. 120 min before 5% formalin

SMILES: COc1c(C2CC(C)(C(F)(F)F)SC2C(=O)Nc2ccnc(C(N)=O)c2)ccc(F)c1F (single isomer, unassigned) [Compound 139-A, 4-(3-(3,4-difluoro-2-methoxyphenyl)-5-methyl-5-(trifluoromethyl)tetrahydrothiophene-2-carboxamido)picolinamide]
- PWT 50% value (g) AUC0-8h (incision pain model): 5.45 ± 1.62 g·h
- analgesic activity compared with the positive control Celecoxib ([1]; CFA-induced rat inflammatory pain model): superior to the positive control Celecoxib
- PWT 50% value (g) Post-surgery, Preadministration ([1]; SD rats CFA, 125 mg/kg group, baseline before administration, Mean + SEM, n = 10): 3.1 ± 1.12 g
- PWT 50% value (g) Pre-surgery ([1]; SD rats CFA, 125 mg/kg group, baseline before modeling, Mean + SEM, n = 10): 12.61 ± 3.5 g
- PWT 50% value (g) Time 0.5 h ([1]; SD rats CFA, 125 mg/kg, 0.5 h after administration, Mean + SEM, n = 10): 6.78 ± 5.47 g
- PWT 50% value (g) Time 2 h ([1]; SD rats CFA, 125 mg/kg, 2 h after administration, Mean + SEM, n = 10): 6.54 ± 3.06 g
- PWT 50% value (g) Time 8 h ([1]; SD rats CFA, 125 mg/kg, 8 h after administration, Mean + SEM, n = 10): 3.6 ± 1.5 g
- PWT 50% value (g) AUC0-8h ([1]; SD rats CFA, 125 mg/kg, Mean + SEM, n = 10): 40.83 ± 12.03 g
- AUC(0-inf) ([2]; Oral administration (p.o.), 20 mg/kg): 24.8 µg·h/mL
- AUC(0-inf) ([2]; iv, Injection (i.v.), 2 mg/kg): 3.08 µg·h/mL
- Number of pain responses 0 min (formalin pain model; [4]): 35.6±6.7
- Number of pain responses 10 min (formalin pain model; [4]): 1.7±2.5
- Number of pain responses 15 min (formalin pain model; [4]): 6.8±3.9
- Number of pain responses 30 min (formalin pain model; [4]): 15.1±4.4
- Number of pain responses 40 min (formalin pain model; [4]): 12.7±5.9
- Number of pain responses 50 min (formalin pain model; [4]): 6.1±5.2
- Number of pain responses 60 min (formalin pain model; [4]): 2.7±2.6
- Number of pain responses 0 min (formalin pain model; [5]): 25.5±13.6
- Number of pain responses 10 min (formalin pain model; [5]): 1.1±1.1
- Number of pain responses 15 min (formalin pain model; [5]): 4.3±2.7
- Number of pain responses 30 min (formalin pain model; [5]): 11.7±6.3
- Number of pain responses 40 min (formalin pain model; [5]): 4.8±3.9
- Number of pain responses 50 min (formalin pain model; [5]): 1.8±1.8
- Number of pain responses 60 min (formalin pain model; [5]): 1.8±1.2
- dose-effect relationship (formalin pain model; rat formalin pain model): relatively good dose-effect relationship
- analgesic activity in the first and second phases (formalin pain model; rat formalin pain model, first phase immediately after injection, second phase about 15-20 min after): significant analgesic activity in both the first and second phases
- concentration at 0.25 h ([3]; Time 0.25 h): 1920 ng/g
- concentration at 2 h ([3]; Time 2 h): 9380 ng/g
- concentration at 12 h ([3]; Time 12 h): 2600 ng/g
